# Measured values taken from patent publication US20250361230A1, “LATS Inhibitors and Uses Thereof” (The USA, as Represented by the Secretary, Dept. of Heath …, priority 2022, published 2025).
# Read-outs that look alike come from different tables or passages of the source.
# Biological target: T1, LATS1 Kinase-NanoLuc fusion in HEK-293 cells (Homo sapiens, UniProt O95835)
# T1 construct: host or cells: HEK-293
# T1 sequence (O95835 1-1130): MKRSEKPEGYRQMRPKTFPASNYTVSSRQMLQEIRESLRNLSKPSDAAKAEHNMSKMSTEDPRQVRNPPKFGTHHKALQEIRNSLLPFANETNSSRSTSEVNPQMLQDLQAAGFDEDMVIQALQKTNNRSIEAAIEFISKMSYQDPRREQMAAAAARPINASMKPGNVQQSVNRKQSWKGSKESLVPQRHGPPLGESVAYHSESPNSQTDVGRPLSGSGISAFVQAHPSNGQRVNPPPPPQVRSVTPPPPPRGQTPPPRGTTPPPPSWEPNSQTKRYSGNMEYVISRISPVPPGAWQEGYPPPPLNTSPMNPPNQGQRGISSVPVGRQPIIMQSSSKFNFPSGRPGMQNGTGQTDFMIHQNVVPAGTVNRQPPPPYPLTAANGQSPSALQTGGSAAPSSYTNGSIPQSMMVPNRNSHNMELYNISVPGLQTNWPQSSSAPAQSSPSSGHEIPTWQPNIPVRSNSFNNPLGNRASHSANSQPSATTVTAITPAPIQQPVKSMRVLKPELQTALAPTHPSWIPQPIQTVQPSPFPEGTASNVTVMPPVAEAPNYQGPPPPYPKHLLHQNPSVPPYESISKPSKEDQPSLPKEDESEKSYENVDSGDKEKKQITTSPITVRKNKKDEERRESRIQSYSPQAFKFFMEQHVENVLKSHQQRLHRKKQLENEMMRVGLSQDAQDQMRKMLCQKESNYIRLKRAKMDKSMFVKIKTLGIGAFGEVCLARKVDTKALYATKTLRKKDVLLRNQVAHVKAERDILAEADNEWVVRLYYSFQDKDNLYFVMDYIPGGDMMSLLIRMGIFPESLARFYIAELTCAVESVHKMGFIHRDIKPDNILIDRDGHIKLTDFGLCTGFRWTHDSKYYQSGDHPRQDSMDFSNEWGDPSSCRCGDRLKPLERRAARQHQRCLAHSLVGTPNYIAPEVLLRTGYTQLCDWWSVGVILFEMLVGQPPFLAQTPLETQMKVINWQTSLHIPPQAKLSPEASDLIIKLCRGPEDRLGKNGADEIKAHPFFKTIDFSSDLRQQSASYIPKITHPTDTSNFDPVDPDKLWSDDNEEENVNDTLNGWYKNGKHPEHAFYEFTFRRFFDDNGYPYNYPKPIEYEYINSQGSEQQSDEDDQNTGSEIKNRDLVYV
# Assay: NanoBRET target engagement assay in transfected HEK-293 cells, LATS1
# Format: cell-based
# Settings: HEK-293 cells, read-out: LATS1 (Cellular) IC50
# Excerpt: The NanoBRET™ assay measures kinase engagement in real time in the context of the intact cell. The assay uses a Kinase-NanoLuc® fusion vector expressing a kinase protein to which a luciferase tag has been added, a cell-permeant fluorescent NanoBRET™ tracer, a NanoLuc® substrate, and an extracellular NanoLuc® inhibitor. Upon expression of the luciferase-tagged kinase, cells will produce a strong BRET signal only in the presence of the NanoBRET™ tracer. The extracellular NanoLuc® inhibitor ensures that the BRET signal observed emanates only from live cells. Because the BRET signal has tight distance constraints, addition of the test compound will decrease the BRET signal if the compound competes with the NanoBRET™ tracer for binding to the kinase domain. Under the appropriate tracer conditions established by the manufacturer, quantitative intracellular affinity and relative potency can then be determined using Mass Action model equations.
# HEK-293 cells were purchased from ATCC. FuGENEHD Transfection Reagent, Kinase-NanoLuc® fusion plasmids, Transfection Carrier DNA, NanoBRET™ Tracers and dilution buffer, NanoBRET™ Nano-Glo Substrate, Extracellular NanoLuc® Inhibitor were obtained from Promega.
# Assays were conducted following Promega assay protocol with some modifications as described further below. HEK-293 Cells were transiently transfected with Kinase-NanoLuc® Fusion Vector DNA by FuGENE HD Transfection Reagent. Test compounds were delivered into 384 well assay plate by Echo 550 (Labcyte Inc, Sunnyvale, CA). Transfected cells were harvested and mixed with NanoBRET™ Tracer Reagent and dispensed into 384 well plates and incubated at 37° C. in 5% CO2 cell culture incubator for 1 hour. The NanoBRET™ Nano-Glo Substrate plus Extracellular NanoLuc® Inhibitor Solution were added into the wells of the assay plate and incubated for 2-3 minutes at room temperature. The donor emission wavelength (460 nm) and acceptor emission wavelength (600 nm) were measured in the EnVision plate reader. The BRET Ratios were calculated. BRET Ratio=[(Acceptor sample÷Donor sample)−(Acceptor no-tracer control÷Donor no-tracer control)]. The IC50 values of compounds were calculated with Prism GraphPad program.
# • 1. Transient Transfection of HEK-293 Cells NanoLuc® Fusion Vector DNA • 1). Cultivate HEK-293 cells (70-80% confluence) appropriately prior to assay. Trypsinize and collect HEK-293 cells. • 2). Prepare lipid: DNA complexes as follows: • a. Prepare a […] solution of DNA in Opti-MEM™ without serum that consists of the following ratios of carrier DNA and DNA encoding NanoLuc® fusion. 9.0 µg/mL of Transfection Carrier DNA, […] of NanoLuc® fusion vector DNA and 1 mL of Opti-MEM™ without phenol red. Mix thoroughly. • b. Add 30 μl of FuGENE HD Transfection Reagent into each milliliter of DNA mixture to form lipid: DNA complex. • c. Mix by inversion 10 times. • d. Incubate at ambient temperature for 20 minutes to allow complexes to form. • 3). In a sterile, conical tube, mix 1 part of lipid: DNA complex with 20 parts of HEK-293 cells in suspension. Mix gently by inversion 5 times. • 4). Dispense cells+lipid: DNA complex into a sterile tissue culture dish and incubate for 22-24 hours. • 2. Addition of Test Compounds (dry plate shooting): Each test compound is delivered from the compound source plate to the wells of 384-well white NBS plate by Echo 550. • 3. Preparation of Cells with NanoBRET™ Tracer Reagent • 1). Remove medium from dish with transfected HEK-293 cells via aspiration, trypsinize and allow cells to dissociate from the dish. • 2). Neutralize trypsin using medium containing serum and centrifuge at 200× g for 5 minutes to pellet the cells. Adjust the cell density to 2×10^5 cells/mL in Opti-MEM™ without phenol red. • 3). Prepare Complete 20× NanoBRET™ Tracer Reagent with Tracer Dilution Buffer. • 4). Dispense one part of Complete 20× NanoBRET™ Tracer Reagent to 20 parts of cells in the tube. Mix gently by inversion 10 times. • 5). […]
SMILES,"IC50 (Table 28, NanoBRET) [nM]","IC50 (Table 32, NanoBRET) [nM]"
"c1cc(-c2ccc3c(c2)CCNC3)c2cc[nH]c2n1 [Compound 267, 6-(1H-pyrrolo[2,3-b]pyridin-4-yl)-1,2,3,4-tetrahydroiso-quinoline]",> 50000,
"c1cc(-c2ccc(C3CCCCN3)cc2)c2cc[nH]c2n1 (stereo not shown) [Compound 271, 4-(4-(piperidin-2-yl)phenyl)-1H-pyrrolo[2,3-b]pyridine]",> 50000,
"NCc1ccc(-c2ccnc3[nH]ccc23)cc1C(F)(F)F [Compound 284, (4-(1H-pyrrolo[2,3-b]pyridin-4-yl)-2-(trifluoromethyl)phenyl) methanamine]",34800,
"Cc1cc(-c2ccnc3[nH]cc(F)c23)cc(F)c1[C@@]1(O)[C@H](C)CN(C)C[C@@H]1C [Compound 304, (3S,4s,5R)-4-(2-fluoro-4-(3-fluoro-1H-pyrrolo[2,3-b]pyridin-4-yl)-6-methylphenyl)-1,3,5-trimethylpiperidin-4-ol]",41.7,
"Cc1cc(-c2ccnc3[nH]cc(F)c23)cc(F)c1[C@@]1(O)[C@H](C)CN(C(C)C)C[C@@H]1C [Compound 305, (3S,4s,5R)-4-(2-fluoro-4-(3-fluoro-1H-pyrrolo[2,3-b]pyridin-4-yl)-6-methylphenyl)-1-isopropyl-3,5-dimethylpiperidin-4-ol]",62.2,
"OC1(c2ccc(-c3ccnc4[nH]cc(F)c34)cc2)CC2(CNC2)C1 [Compound 319, 6-(4-(3-fluoro-1H-pyrrolo[2,3-b]pyridin-4-yl)phenyl)-2-azaspiro[3.3]heptan-6-ol]",27700,
"NCC(O)(c1ccc(Cl)cc1)c1ccc(-c2ccnc3[nH]ccc23)cc1 (stereo not shown) [Compound 1001, 1-(4-(1H-pyrrolo[2,3-b]pyridin-4-yl)phenyl)-2-amino-1-(4-chlorophenyl)ethan-1-ol]",,123
"NCC(O)(c1ccc(Cl)cc1)c1ccc(-c2ccnc3[nH]cc(F)c23)cc1 (stereo not shown) [Compound 1002, 2-amino-1-(4-chlorophenyl)-1-(4-(3-fluoro-1H-pyrrolo[2,3-b]pyridin-4-yl)phenyl)ethan-1-ol]",,55
"COC(=O)c1c[nH]c2nccc(-c3ccc(C(O)(CN)c4ccc(Cl)cc4)cc3)c12 (stereo not shown) [Compound 1004, Methyl 4-(4-(2-amino-1-(4-chlorophenyl)-1-hydroxyethyl)phenyl)-1H-pyrrolo[2,3-b]pyridine-3-carboxylate]",,2000

# The remaining lines, values ahead:
"IC50 (Table 28, NanoBRET) [nM]","IC50 (Table 32, NanoBRET) [nM]",SMILES
5470,,"Cc1cccc(-c2c[nH]c3nccc(-c4ccc(CN)cc4)c23)c1 [Compound 230, (4-(3-(m-tolyl)-1H-pyrrolo[2,3-b]pyridin-4-yl)phenyl) methanamine]"
1560,,"CC(C)(N)c1ccc(-c2ccnc3[nH]cc(F)c23)cc1 [Compound 238, 2-(4-(3-fluoro-1H-pyrrolo[2,3-b]pyridin-4-yl)phenyl)propan-2-amine]"
11900,,"NCc1ccc(-c2ccnc3[nH]cc(-c4cccnc4)c23)cc1 [Compound 245, (4-(3-(pyridin-3-yl)-1H-pyrrolo[2,3-b]pyridin-4-yl)phenyl) methanamine]"
2980,,"NCc1ccc(-c2ccnc3[nH]cc(-c4ccccc4)c23)cc1 [Compound 253, (4-(3-phenyl-1H-pyrrolo[2,3-b]pyridin-4-yl)phenyl) methanamine]"
714,,"Cc1cc(-c2ccnc3[nH]cc(Cl)c23)ccc1CN [Compound 254, (4-(3-chloro-1H-pyrrolo[2,3-b]pyridin-4-yl)-2-methylphenyl) methanamine]"
6710,,"Cc1cc(-c2ccnc3[nH]ccc23)ccc1CN [Compound 266, (2-methyl-4-(1H-pyrrolo[2,3-b]pyridin-4-yl)phenyl) methanamine]"
10100,,"NCc1ccc(-c2ccnc3[nH]cc(F)c23)cc1 [Compound 275, (4-(3-fluoro-1H-pyrrolo[2,3-b]pyridin-4-yl)phenyl) methanamine]"
2830,,"NCc1ccc(-c2ccnc3[nH]cc(Cl)c23)cc1 [Compound 276, (4-(3-chloro-1H-pyrrolo[2,3-b]pyridin-4-yl)phenyl) methanamine]"
22800,,"NCc1ccc(-c2ccnc3[nH]ccc23)cc1 [Compound 287, (4-(1H-pyrrolo[2,3-b]pyridin-4-yl)phenyl) methanamine]"
1350,,"COC(=O)c1c[nH]c2nccc(-c3cc(C)c([C@@]4(O)[C@H](C)CN(C5CCS(=O)(=O)CC5)C[C@@H]4C)c(F)c3)c12 [Compound 309, methyl 4-(4-((3S,4s,5R)-1-(1,1-dioxidotetrahydro-2H-thiopyran-4-yl)-4-hydroxy-3,5-dimethylpiperidin-4-yl)-3-fluoro-5-methylphenyl)-1H-pyrrolo[2,3-b]pyridine-3-carboxylate]"
4590,,"COC(=O)c1c[nH]c2nccc(-c3cc(C)c([C@@]4(O)[C@H](C)CN(C(=O)CN)C[C@@H]4C)c(F)c3)c12 [Compound 310, methyl 4-(3-fluoro-4-((3S,4s,5R)-1-glycyl-4-hydroxy-3,5-dimethylpiperidin-4-yl)-5-methylphenyl)-1H-pyrrolo[2,3-b]pyridine-3-carboxylate]"
10.4,,"Cc1cc(-c2ccnc3[nH]cc(F)c23)cc(F)c1[C@@]1(O)[C@H](C)CN(C(=O)[C@H](N)CO)C[C@@H]1C [Compound 312, (R)-2-amino-1-((3S,4R,5R)-4-(2-fluoro-4-(3-fluoro-1H-pyrrolo[2,3-b]pyridin-4-yl)-6-methylphenyl)-4-hydroxy-3,5-dimethylpiperidin-1-yl)-3-hydroxypropan-1-one]"
43,,"Cc1cc(-c2ccnc3[nH]cc(F)c23)cc(F)c1[C@@]1(O)[C@H](C)CN(C(=O)[C@@H](CO)N(C)C)C[C@@H]1C [Compound 313, (R)-2-(dimethylamino)-1-((3S,4S,5R)-4-(2-fluoro-4-(3-fluoro-1H-pyrrolo[2,3-b]pyridin-4-yl)-6-methylphenyl)-4-hydroxy-3,5-dimethylpiperidin-1-yl)-3-hydroxypropan-1-one]"
